Assay results as given in PubChem BioAssay (NCI).
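A five-concentration, 48-hour dose response in 96-well plates underlies each endpoint, interpolated linearly between surrounding concentrations. TGI marks complete inhibition of growth.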

Legend:
Test in all cases: NCI-60 cell line screen, 48 h
M19-MEL melanoma = system: M19-MEL melanoma
SNB-78 CNS = system: SNB-78 CNS
HOP-18 NSCLC = system: HOP-18 NSCLC
IGROV1 ovarian = system: IGROV1 ovarian
LXFL 529 NSCLC = system: LXFL 529 NSCLC
NCI-H522 lung = system: NCI-H522 lung
DMS 273 small cell lung = system: DMS 273 small cell lung
SW-620 colon = system: SW-620 colon
XF 498 CNS = system: XF 498 CNS
KM20L2 colon = system: KM20L2 colon
DLD-1 colon = system: DLD-1 colon
DMS 114 small cell lung = system: DMS 114 small cell lung
RXF-631 renal = system: RXF-631 renal

Nc1nc2c3nc(Nc4ccccc4)sc3nc(=O)n2c2sc(Nc3ccccc3)nc12
TGI (M19-MEL melanoma): > 100 µM
TGI (SNB-78 CNS): > 100 µM
TGI (HOP-18 NSCLC): > 100 µM
TGI (IGROV1 ovarian): > 100 µM
TGI (LXFL 529 NSCLC): > 100 µM
TGI (NCI-H522 lung): > 100 µM
TGI (DMS 273 small cell lung): > 100 µM
TGI (SW-620 colon): > 100 µM
TGI (XF 498 CNS): > 100 µM
TGI (KM20L2 colon): > 100 µM
TGI (DLD-1 colon): > 100 µM

O=C1c2ccc(O)c(O)c2C(=O)c2c(O)ccc(O)c21
TGI (DMS 114 small cell lung): 32.6 µM
TGI (M19-MEL melanoma): > 100 µM
TGI (SNB-78 CNS): > 100 µM
TGI (IGROV1 ovarian): > 100 µM
TGI (LXFL 529 NSCLC): > 100 µM
TGI (NCI-H522 lung): 3.03 µM
TGI (DMS 273 small cell lung): 61.7 µM
TGI (SW-620 colon): > 100 µM
TGI (KM20L2 colon): 70.8 µM
TGI (DLD-1 colon): > 100 µM

CCN1CCC(O)(c2ccc(Cl)cc2)C(C(=O)c2ccc(Cl)cc2)C1 (stereo not given)
TGI (M19-MEL melanoma): > 100 µM
TGI (SNB-78 CNS): > 100 µM
TGI (HOP-18 NSCLC): 95.9 µM
TGI (IGROV1 ovarian): > 100 µM
TGI (LXFL 529 NSCLC): > 100 µM
TGI (NCI-H522 lung): 41.9 µM
TGI (DMS 273 small cell lung): > 100 µM
TGI (SW-620 colon): > 100 µM
TGI (XF 498 CNS): > 100 µM
TGI (KM20L2 colon): > 100 µM
TGI (DLD-1 colon): > 100 µM

CC(=O)O[C@H]1C(=O)[C@@]2(C)C(C(OC(=O)c3ccccc3)C3[C@@H](O)C(OC(=O)[C@@H](O)[C@H](NC(=O)c4ccccc4)c4ccc(C(F)(F)F)cc4)C(C)=C1C3(C)C)[C@]1(OC(C)=O)CO[C@@H]1C[C@@H]2O (stereo not given in full)
TGI (DMS 114 small cell lung): > 25 µM
TGI (M19-MEL melanoma): > 25 µM
TGI (SNB-78 CNS): > 25 µM
TGI (IGROV1 ovarian): > 25 µM
TGI (LXFL 529 NSCLC): > 25 µM
TGI (NCI-H522 lung): 21.1 µM
TGI (DMS 273 small cell lung): > 25 µM
TGI (SW-620 colon): > 25 µM
TGI (KM20L2 colon): > 25 µM
TGI (DLD-1 colon): > 25 µM

Cc1cc2c([nH]c3ccccc32)c2c1OC(C)(C)C1C3CC(C)(C)Oc4c(C)cc5c6ccccc6n(c5c43)C21 (stereo not given)
TGI (DMS 114 small cell lung): > 100 µM
TGI (M19-MEL melanoma): > 100 µM
TGI (SNB-78 CNS): > 100 µM
TGI (HOP-18 NSCLC): > 100 µM
TGI (IGROV1 ovarian): > 100 µM
TGI (LXFL 529 NSCLC): > 100 µM
TGI (NCI-H522 lung): > 100 µM
TGI (DMS 273 small cell lung): > 100 µM
TGI (SW-620 colon): > 100 µM
TGI (KM20L2 colon): > 100 µM

CCN(CC)C(=O)C(C)n1cc(C)c(=O)[nH]c1=O (stereo not given)
TGI (DMS 114 small cell lung): > 100 µM
TGI (M19-MEL melanoma): > 100 µM
TGI (SNB-78 CNS): > 100 µM
TGI (IGROV1 ovarian): > 100 µM
TGI (LXFL 529 NSCLC): > 100 µM
TGI (NCI-H522 lung): > 100 µM
TGI (DMS 273 small cell lung): > 100 µM
TGI (SW-620 colon): > 100 µM
TGI (XF 498 CNS): > 100 µM
TGI (KM20L2 colon): > 100 µM

CCCCCCCCCCCCCCCCCCN(C)CC(COP(=O)([O-])OCC[N+](C)(C)C)OC (stereo not given)
TGI (DMS 114 small cell lung): 20.5 µM
TGI (M19-MEL melanoma): 13.1 µM
TGI (SNB-78 CNS): 21.3 µM
TGI (HOP-18 NSCLC): 32.5 µM
TGI (IGROV1 ovarian): 6.63 µM
TGI (LXFL 529 NSCLC): 21.6 µM
TGI (NCI-H522 lung): 30.2 µM
TGI (DMS 273 small cell lung): 5.4 µM
TGI (SW-620 colon): 47 µM
TGI (XF 498 CNS): 29.9 µM
TGI (KM20L2 colon): 4.16 µM
TGI (RXF-631 renal): 43.7 µM
TGI (DLD-1 colon): 17.3 µM
